Test results taken from PubChem BioAssay (NCI).
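Here, GI50 denotes the concentration required for 50% inhibition of growth. At the TGI there is no net growth.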

Legend:
Assay in all cases: NCI anticancer screen, dose series, 384-well format
[1] = system: A549 NSCLC
[2] = system: MDA-MB-468 breast
[3] = system: SN12C renal
[4] = system: EKVX NSCLC
[5] = system: BT-549 breast
[6] = system: IGROV1 ovarian
[7] = system: COLO 205 colon
[8] = system: HS 578T breast
[9] = system: KM12 colon
[10] = system: MDA-MB-435 melanoma
[11] = system: OVCAR-4 ovarian
[12] = system: OVCAR-5 ovarian
[13] = system: SK-OV-3 ovarian
[14] = system: SK-MEL-5 melanoma
[15] = system: MOLT-4 leukemia
[16] = system: DU-145 prostate
[17] = system: OVCAR-3 ovarian
[18] = system: NCI-H522 lung
[19] = system: HCT-15 colon
[20] = system: ACHN renal
[21] = system: SF-295 CNS
[22] = system: T-47D breast
[23] = system: HCT-116 colon
[24] = system: TK-10 renal
[25] = system: OVCAR-8 ovarian
[26] = system: PC-3 prostate
[27] = system: HT29 colon
[28] = system: SNB-75 CNS
[29] = system: A498 renal
[30] = system: UO-31 renal
[31] = system: SK-MEL-28 melanoma
[32] = system: UACC-257 melanoma
[33] = system: SF-539 CNS
[34] = system: SF-268 CNS
[35] = system: MCF7 breast
[36] = system: HOP-62 NSCLC
[37] = system: NCI-H23 lung
[38] = system: MALME-3M melanoma
[39] = system: 786-0 renal
[40] = system: MDA-MB-231 breast
[41] = system: SR leukemia
[42] = system: SNB-19 CNS
[43] = system: NCI-H322M lung
[44] = system: HL-60(TB) leukemia
[45] = system: SW-620 colon
[46] = system: HOP-92 NSCLC
[47] = system: RXF 393 renal
[48] = system: UACC-62 melanoma
[49] = system: NCI-H460 NSCLC
[50] = system: SK-MEL-2 melanoma
[51] = system: CAKI-1 renal
[52] = system: M14 melanoma
[53] = system: K-562 leukemia
[54] = system: NCI-H226 lung

Question: What does the source list for `CN(C)C1CCN(C(=O)c2ccc(NC(=O)Nc3ccc(-c4nc(N5CCOCC5)nc(N5CCOCC5)n4)cc3)cc2)CC1`?
Answer: GI50 [1]: 0.0223 µM; TGI [1]: 0.546 µM; GI50 [2]: < 0.01 µM; TGI [2]: 0.0224 µM; GI50 [3]: 0.0303 µM; TGI [3]: 12.4 µM; GI50 [4]: 0.0406 µM; TGI [4]: 0.828 µM; GI50 [5]: 0.0176 µM; TGI [5]: 0.13 µM; GI50 [6]: < 0.01 µM; TGI [6]: 0.0431 µM; GI50 [7]: 0.0267 µM; TGI [7]: 0.137 µM; GI50 [8]: < 0.01 µM; TGI [8]: 0.0455 µM; GI50 [9]: 0.0277 µM; TGI [9]: 10.3 µM; GI50 [10]: 0.0235 µM; TGI [10]: 0.352 µM; GI50 [11]: < 0.01 µM; TGI [11]: 0.0509 µM; GI50 [12]: 0.0509 µM; TGI [12]: 12.1 µM; GI50 [13]: < 0.01 µM; TGI [13]: 0.0398 µM; GI50 [14]: 0.125 µM; TGI [14]: 0.39 µM; GI50 [15]: 0.0107 µM; TGI [15]: 0.0454 µM; GI50 [16]: 0.015 µM; TGI [16]: 1.58 µM; GI50 [17]: 0.0121 µM; TGI [17]: 0.323 µM; GI50 [18]: 0.0244 µM; TGI [18]: 1.61 µM; GI50 [19]: 3.26 µM; TGI [19]: > 100 µM; GI50 [20]: 0.479 µM; TGI [20]: 5.56 µM; GI50 [21]: 0.174 µM; TGI [21]: 0.607 µM; GI50 [22]: < 0.01 µM; TGI [22]: 0.0114 µM; GI50 [23]: 0.0319 µM; TGI [23]: 1.97 µM; GI50 [24]: 0.348 µM; TGI [24]: 1.69 µM; GI50 [25]: 0.139 µM; TGI [25]: 2.94 µM; GI50 [26]: 0.0188 µM; TGI [26]: 0.765 µM; GI50 [27]: 0.0286 µM; TGI [27]: 1.47 µM; GI50 [28]: < 0.01 µM; TGI [28]: 0.0339 µM; GI50 [29]: 0.188 µM; TGI [29]: 0.943 µM; GI50 [30]: 2.22 µM; TGI [30]: 7.29 µM; GI50 [31]: 0.0428 µM; TGI [31]: 1.15 µM; GI50 [32]: 0.0519 µM; TGI [32]: 0.338 µM; GI50 [33]: < 0.01 µM; TGI [33]: 0.113 µM; GI50 [34]: 0.0363 µM; TGI [34]: 1.76 µM; GI50 [35]: < 0.01 µM; TGI [35]: 0.176 µM; GI50 [36]: 0.0521 µM; TGI [36]: 0.351 µM; GI50 [37]: 0.0508 µM; TGI [37]: 1.12 µM; GI50 [38]: 0.0189 µM; TGI [38]: 0.0735 µM; GI50 [39]: 0.29 µM; TGI [39]: 2.03 µM; GI50 [40]: 0.0117 µM; TGI [40]: 15 µM; GI50 [41]: < 0.01 µM; TGI [41]: 0.0264 µM; GI50 [42]: 0.383 µM; TGI [42]: 14.4 µM; GI50 [43]: 0.0195 µM; TGI [43]: 0.149 µM; GI50 [44]: 0.0554 µM; TGI [44]: 0.227 µM; GI50 [45]: 0.0752 µM; TGI [45]: 10.2 µM; GI50 [46]: 0.0211 µM; TGI [46]: 0.118 µM; GI50 [47]: 0.0252 µM; TGI [47]: 0.203 µM; GI50 [48]: 0.0249 µM; TGI [48]: 0.142 µM; GI50 [49]: 0.0186 µM; TGI [49]: 1.34 µM; GI50 [50]: 0.0373 µM; TGI [50]: 0.268 µM; GI50 [51]: 0.278 µM; TGI [51]: 1.23 µM; GI50 [52]: 0.128 µM; TGI [52]: 5.25 µM; GI50 [53]: 0.0422 µM; TGI [53]: 1.82 µM; GI50 [54]: 0.0865 µM; TGI [54]: 0.441 µM
